Assay results: the NIST ThermoML archive (doi:10.1021/je050498q)

Test: mn = molality of the nth substance listed, in mol/kg
Details: 101 kPa, Liquid

O=C([O-])[C@H](O)[C@@H](O)C(=O)[O-].[Na+].[Na+] [disodium L-tartrate] + O
Details	mass density, 308.15 K [kg/m3]	mass density, 318.15 K [kg/m3]	speed of sound, 298.15 K [m/s]	speed of sound, 308.15 K [m/s]	speed of sound, 318.15 K [m/s]
m1 = 0.0325	998.34	994.47	–	1524.8	1541.3
m1 = 0.0351	998.7	994.82	–	1525.2	1541.7
m1 = 0.0405	999.4	995.52	–	1526	1542.3
m1 = 0.0552	1001.34	997.43	–	1528	1544.3
m1 = 0.0576	1001.64	997.72	–	1528.4	1544.6
m1 = 0.0673	1002.91	998.99	–	1529.7	1545.9
m1 = 0.0747	1003.87	999.92	–	1530.7	1547
m1 = 0.0814	1004.73	1000.77	–	1531.6	1547.7
m1 = 0.1365	1011.79	1007.83	–	1539.2	1554.9
m1 = 0.2798	1029.68	1025.48	–	1558.2	1572.9
m1 = 0.4159	1046.11	1041.78	–	1575.8	1589.4
m1 = 0.5661	1063.54	1059.16	–	1594.6	1607.3
m1 = 0.7158	1080.39	1075.77	–	1615.3	1624.1
m1 = 0.888	1098.96	1094.15	–	1633.8	1644
m1 = 1.055	1116.46	1111.35	–	1653.6	1662.2
m1 = 1.211	1132.16	1126.7	–	1671.7	1679.2
m1 = 1.412	1151.68	1146.41	–	1694.5	1701.2
m1 = 1.593	1168.58	1163.14	–	1714.6	1719.8
m1 = 1.749	1182.99	1176.91	–	1732	1734.8
m1 = 2.203	1221.08	1215.23	1774	1778.7	1779.7
